Source: ChEMBL document CHEMBL5625227, “Discovery and optimization of 2,3-diaryl-1,3-thiazolidin-4-one-based derivatives as potent and selective cytotoxic agents with anti-inflammatory activity” (Eur J Med Chem, 2023)
Calls of active or inactive are those of the source. No cut-off for these calls is given here.

How the values were obtained:
[1] = tested on: THP-1; assay: Cytotoxicity against human THP-1 cells assessed as inhibition in cell growth; assay type: functional, cell-based
[2] = Selectivity index, ratio of IC50 for cytotoxicity against human MRC5 cells to IC50 for cytotoxicity against human A2780 cells; conditions: MRC5 cells versus A2780 cells
[3] = Selectivity index, ratio of IC50 for cytotoxicity against human MRC5 cells to IC50 for cytotoxicity against human MCF7 cells; conditions: MRC5 cells versus MCF7 cells
[4] = tested on: MCF7; assay: Cytotoxicity against human MCF7 cells assessed as inhibition in cell growth incubated for 72 hrs by MTT assay; assay type: functional, cell-based; conditions: MCF7, 72 h
[5] = tested on: HT-29; assay: Cytotoxicity against human HT-29 cells assessed as inhibition in cell growth incubated for 72 hrs by MTT assay; assay type: functional, cell-based; conditions: HT-29, 72 h
[6] = tested on: A2780; assay: Cytotoxicity against human A2780 cells assessed as inhibition in cell growth incubated for 72 hrs by MTT assay; assay type: functional, cell-based; conditions: A2780, 72 h
[7] = Cytotoxicity against human MRC5 cells assessed as inhibition in cell growth incubated for 72 hrs by MTT assay; assay type: toxicity, cell-based
[8] = Selectivity index, ratio of IC50 for cytotoxicity against human MRC5 cells to IC50 for cytotoxicity against human HT-29 cells; conditions: MRC5 cells versus HT-29 cells
[9] = tested on: HCT-116; assay: Cytotoxicity against human HCT-116 cells assessed as inhibition in cell growth; assay type: functional, cell-based
[10] = tested on: HepG2; assay: Cytotoxicity against human HepG2 cells assessed as inhibition in cell growth; assay type: functional, cell-based
[11] = tested on: MCF7; assay: Cytotoxicity against human MCF7 cells assessed as inhibition in cell growth; assay type: functional, cell-based
[12] = tested on: PC-3; assay: Cytotoxicity against human PC-3 cells assessed as inhibition in cell growth; assay type: functional, cell-based
[13] = species on record: Sus scrofa; assay: Induction of porcine brain tubulin polymerization at 3 uM by fluorescence-based tubulin polymerization assay
[14] = tested on: Rattus norvegicus; assay: Antiinflammatory activity against carrageenan-induced paw edema Sprague-Dawley rat model assessed as inhibition of inflammation at 50 mg/kg, po after 5 hrs relative to control; assay type: functional; design: scale not given: the % may be the effect or the level left
[15] = target: T1, Prostaglandin G/H synthase 1 (Ovis aries, UniProt P05979); assay: Inhibition of ovine COX-1
T1 sequence (P05979 whole entry): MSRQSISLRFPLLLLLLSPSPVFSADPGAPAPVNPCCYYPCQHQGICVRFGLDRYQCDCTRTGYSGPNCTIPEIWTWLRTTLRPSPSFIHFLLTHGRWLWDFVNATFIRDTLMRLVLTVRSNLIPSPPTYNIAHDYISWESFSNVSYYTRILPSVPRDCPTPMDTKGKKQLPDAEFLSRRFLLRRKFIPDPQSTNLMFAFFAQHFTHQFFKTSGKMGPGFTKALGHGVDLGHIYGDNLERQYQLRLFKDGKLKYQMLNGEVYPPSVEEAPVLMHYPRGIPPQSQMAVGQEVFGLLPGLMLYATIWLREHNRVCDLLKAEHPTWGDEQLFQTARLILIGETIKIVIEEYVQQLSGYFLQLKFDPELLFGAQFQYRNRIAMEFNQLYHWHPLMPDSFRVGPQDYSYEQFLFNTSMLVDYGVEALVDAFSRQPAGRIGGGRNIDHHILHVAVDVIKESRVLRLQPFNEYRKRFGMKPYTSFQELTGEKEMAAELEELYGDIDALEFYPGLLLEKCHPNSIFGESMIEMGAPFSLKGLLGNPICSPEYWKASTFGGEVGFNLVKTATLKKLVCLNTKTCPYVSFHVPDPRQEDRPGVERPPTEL

[16] = tested on: Rattus norvegicus; assay: Antiinflammatory activity against carrageenan-induced paw edema Sprague-Dawley rat model assessed as inhibition of inflammation at 50 mg/kg, po after 1 hr relative to control; assay type: functional; design: scale not given: the % may be the effect or the level left
[17] = tested on: Rattus norvegicus; assay: Antiinflammatory activity against carrageenan-induced paw edema Sprague-Dawley rat model assessed as inhibition of paw edema by measuring edema thickness at 50 mg/kg, po measured after 3 hrs (reference value: 1.41 +/- 0.13 mm); assay type: functional
[18] = tested on: Rattus norvegicus; assay: Antiinflammatory activity against carrageenan-induced paw edema Sprague-Dawley rat model assessed as inhibition of paw edema by measuring edema thickness at 50 mg/kg, po measured after 5 hrs (reference value: 1.39 +/- 0.11 mm); assay type: functional
[19] = tested on: Rattus norvegicus; assay: Antiinflammatory activity against carrageenan-induced paw edema Sprague-Dawley rat model assessed as inhibition of inflammation at 50 mg/kg, po after 3 hrs relative to control; assay type: functional; design: scale not given: the % may be the effect or the level left
[20] = tested on: Rattus norvegicus; assay: Antiinflammatory activity against carrageenan-induced paw edema Sprague-Dawley rat model assessed as inhibition of paw edema by measuring edema thickness at 50 mg/kg, po measured after 1 hr (reference value: 0.71 +/- 0.03 mm); assay type: functional

Structure (SMILES)	selectivity ratio at 72 h [2]	selectivity ratio at 72 h [3]	IC50 [4]	IC50 [5]	IC50 [6]	IC50 at 72 h [7]	selectivity ratio at 72 h [8]	further results
COc1ccc(N2C(=O)CSC2c2cc(OC)c(OC)c(OC)c2)cc1 (stereo not given)	–	–	–	–	–	–	–	IC50 [1]: 1210 nM
COc1ccc(NC(=O)COc2ccc(N3C(=O)CSC3c3ccccc3)cc2)cc1OC (stereo not given)	5.76	4.19	1760 nM	2150 nM	1280 nM	7.37 µM	3.43	–
COc1cccc2c1C(=O)c1c(O)c3c(c(O)c1C2=O)C[C@@](O)(C(=O)CO)C[C@@H]3O[C@H]1C[C@H](N)[C@H](O)[C@H](C)O1 [DOXORUBICIN]	–	–	–	1500 nM	5120 nM	2.5 µM	–	–
COc1cc(NC(=O)COc2ccc(N3C(=O)CSC3c3ccccc3)cc2)cc(OC)c1OC (stereo not given)	4.69	4.13	2270 nM	3210 nM	2000 nM	9.38 µM	2.92	–
Cc1ccc(NC(=O)COc2ccc(N3C(=O)CSC3c3ccc(Cl)cc3)cc2)cc1 (stereo not given)	1.94	1.53	2080 nM	890 nM	1640 nM	3.18 µM	3.57	–
Cc1ccc(C2SCC(=O)N2c2ccc(OCC(=O)Nc3ccccc3)cc2)cc1 (stereo not given)	0.32	0.77	1150 nM	1130 nM	2810 nM	0.89 µM	0.79	–
COc1cc2c(c(OC)c1OC)-c1ccc(OC)c(=O)cc1[C@@H](NC(C)=O)CC2 [COLCHICINE]	–	–	–	5190 nM	23 nM	–	–	–
O=C(COc1ccc(N2C(=O)CSC2c2ccccc2)cc1)Nc1ccc(F)cc1 (stereo not given)	2.53	4.89	2750 nM	5130 nM	5320 nM	13.5 µM	2.62	–
CC(=O)c1ccc(NC(=O)COc2ccc(C3SCC(=O)N3c3ccccc3)cc2)cc1 (stereo not given)	–	–	–	–	–	–	–	IC50 [9]: 18.2 µM; IC50 [10]: 18.2 µM; IC50 [11]: 18.2 µM; IC50 [12]: 18.2 µM
COc1ccc(NC(=O)COc2ccc(N3C(=O)CSC3c3ccc(Cl)cc3)cc2)cc1 (stereo not given)	0.78	0.81	1240 nM	780 nM	1280 nM	1 µM	1.28	–
O=C(COc1ccc(N2C(=O)CSC2c2ccc(Cl)cc2)cc1)Nc1ccc(F)cc1 (stereo not given)	0.79	5.97	1460 nM	640 nM	11000 nM	8.72 µM	13.6	–
CC(=O)O[C@H]1C(=O)[C@@]2(C)[C@H]([C@H](OC(=O)c3ccccc3)[C@]3(O)C[C@H](OC(=O)[C@H](O)[C@@H](NC(=O)c4ccccc4)c4ccccc4)C(C)=C1C3(C)C)[C@]1(OC(C)=O)CO[C@@H]1C[C@@H]2O	–	–	–	–	–	–	–	Activity [13]: Active
Cc1ccc(NC(=O)COc2ccc(N3C(=O)CSC3c3ccc(C)cc3)cc2)cc1 (stereo not given)	1.1	2.34	1330 nM	700 nM	2820 nM	3.11 µM	4.44	–
O=C(COc1ccc(N2C(=O)CSC2c2ccccc2)cc1)Nc1ccc(Cl)cc1 (stereo not given)	0.63	1.79	5960 nM	3530 nM	17000 nM	10.7 µM	3.02	Activity [14]: 47.48%; IC50 [15]: 36.5 µM; Activity [16]: 15.3%; Activity [17]: 0.63 mm; Activity [18]: 0.53 mm; Activity [19]: 32.7%; Activity [20]: 0.54 mm
O=C(COc1ccc(N2C(=O)CSC2c2ccc(Cl)cc2)cc1)Nc1ccc(Cl)cc1 (stereo not given)	0.84	2.83	2330 nM	1320 nM	7840 nM	6.6 µM	5	–
O=C(COc1ccc(N2C(=O)CSC2c2ccccc2)cc1)Nc1ccccc1 (stereo not given)	0.52	1.54	2390 nM	4810 nM	7070 nM	3.69 µM	0.77	–
Cc1ccc(NC(=O)COc2ccc(N3C(=O)CSC3c3ccccc3)cc2)cc1 (stereo not given)	1.75	1.59	1790 nM	2110 nM	1630 nM	2.85 µM	1.35	Activity [14]: 47.48%; IC50 [15]: 4.55 µM; Activity [16]: 15.3%; Activity [17]: 0.67 mm; Activity [18]: 0.69 mm; Activity [19]: 32.7%; Activity [20]: 0.57 mm
COc1ccc(NC(=O)COc2ccc(N3C(=O)CSC3c3ccc(C)cc3)cc2)cc1 (stereo not given)	0.61	1.17	2470 nM	5340 nM	4700 nM	2.89 µM	0.54	Activity [14]: 47.48%; IC50 [15]: 8.37 µM; Activity [16]: 15.3%; Activity [17]: 0.79 mm; Activity [18]: 0.73 mm; Activity [19]: 32.7%; Activity [20]: 0.61 mm
O=C(COc1ccc(N2C(=O)CSC2c2ccc(Cl)cc2)cc1)Nc1ccccc1 (stereo not given)	0.57	1.13	1310 nM	440 nM	2600 nM	1.48 µM	3.36	–
